Measured values from PubChem BioAssay AID2060889 (Molecular Pharmacology Branch, DTP, NCI, 2025).

System: LG0567-F671-PDC complex spheroids viability
Experiment: Anticancer human tumor LG0567-F671-PDC patient-derived lung adenocarcinoma cell line growth inhibition [RAS]
Settings: for IC50: curve of first compound; for viability, T/C: stronger effect = lower value
Method in brief: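 Agents were tested in combination matrices in half-log decrements from a top concentration at or near clinical Cmax (10 microM if undetermined). Targets were multi-cell spheroids of tumour lines plus HUVEC and MSC stromal cells.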
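Also: spheroids exposed to compound for seven days before readout.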
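For IC50 in this document: luminescence signal used as a proxy for viable cells.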

Q: With C[C@@H](NC(=O)c1ncnc(N)c1Cl)c1ncc(C(=O)Nc2cc(C(F)(F)F)c(Cl)cn2)s1 + CCn1c(-c2cccnc2C(C)OC)c2c3cc(ccc31)N1CCOC(CC(NC(=O)C(C(C)C)N(C)C(=O)C3(F)CCN(C(=O)C#CC(C)(C)N(C)C)CC3)C(=O)N3CCCC(N3)C(=O)OCC(C)(C)C2)C1 as the compound, how does the IC50 (second compound 0.000949 µM) read?
A: < 31.6 nM

Q: And the IC50 (second compound 0.003 µM)?
A: < 31.6 nM

Q: And the IC50 (second compound 0.00949 µM)?
A: < 31.6 nM

Q: And the IC50 (second compound 0.03 µM)?
A: < 31.6 nM

Q: And the IC50 (second compound 0.0949 µM)?
A: < 31.6 nM

Q: And the IC50 (second compound 0.3 µM)?
A: < 31.6 nM

Q: And the viability, T/C (second compound 0.000949 µM, first compound 0.0316 µM)?
A: 17.3%

Q: And the viability, T/C (second compound 0.000949 µM, first compound 0.1 µM)?
A: 19.9%

Q: And the viability, T/C (second compound 0.000949 µM, first compound 0.316 µM)?
A: 20.6%

Q: What about the viability, T/C (second compound 0.000949 µM, first compound 1 µM) of the same compound?
A: 24.5%

Q: What about the viability, T/C (second compound 0.000949 µM, first compound 3.16 µM) of the same compound?
A: 23.5%

Q: What about the viability, T/C (second compound 0.000949 µM, first compound 10 µM) of the same compound?
A: 23.9%

Q: What about the viability, T/C (second compound 0.003 µM, first compound 0.0316 µM) of the same compound?
A: 17.1%

Q: And the viability, T/C (second compound 0.003 µM, first compound 0.1 µM)?
A: 17.9%

Q: And the viability, T/C (second compound 0.003 µM, first compound 0.316 µM)?
A: 21.1%

Q: What about the viability, T/C (second compound 0.003 µM, first compound 1 µM) of the same compound?
A: 21%

Q: What about the viability, T/C (second compound 0.003 µM, first compound 3.16 µM) of the same compound?
A: 25.6%

Q: And the viability, T/C (second compound 0.003 µM, first compound 10 µM)?
A: 23.6%

Q: What about the viability, T/C (second compound 0.00949 µM, first compound 0.0316 µM) of the same compound?
A: 20.9%

Q: And the viability, T/C (second compound 0.00949 µM, first compound 0.1 µM)?
A: 18.6%

Q: And the viability, T/C (second compound 0.00949 µM, first compound 0.316 µM)?
A: 19.2%

Q: What about the viability, T/C (second compound 0.00949 µM, first compound 1 µM) of the same compound?
A: 22.4%

Q: And the viability, T/C (second compound 0.00949 µM, first compound 3.16 µM)?
A: 22.4%

Q: And the viability, T/C (second compound 0.00949 µM, first compound 10 µM)?
A: 24%

Q: And the viability, T/C (second compound 0.03 µM, first compound 0.0316 µM)?
A: 16.7%

Q: What about the viability, T/C (second compound 0.03 µM, first compound 0.1 µM) of the same compound?
A: 17.1%

Q: What about the viability, T/C (second compound 0.03 µM, first compound 0.316 µM) of the same compound?
A: 22.9%

Q: What about the viability, T/C (second compound 0.03 µM, first compound 1 µM) of the same compound?
A: 20.3%

Q: And the viability, T/C (second compound 0.03 µM, first compound 3.16 µM)?
A: 21.6%

Q: And the viability, T/C (second compound 0.03 µM, first compound 10 µM)?
A: 22.2%

Q: What about the viability, T/C (second compound 0.0949 µM, first compound 0.0316 µM) of the same compound?
A: 14.4%

Q: What about the viability, T/C (second compound 0.0949 µM, first compound 0.1 µM) of the same compound?
A: 15.5%

Q: What about the viability, T/C (second compound 0.0949 µM, first compound 0.316 µM) of the same compound?
A: 17.5%

Q: What about the viability, T/C (second compound 0.0949 µM, first compound 1 µM) of the same compound?
A: 19.6%

Q: What about the viability, T/C (second compound 0.0949 µM, first compound 3.16 µM) of the same compound?
A: 19.8%

Q: And the viability, T/C (second compound 0.0949 µM, first compound 10 µM)?
A: 21.8%

Q: And the viability, T/C (second compound 0.3 µM, first compound 0.0316 µM)?
A: 13%

Q: What about the viability, T/C (second compound 0.3 µM, first compound 0.1 µM) of the same compound?
A: 14.8%

Q: What about the viability, T/C (second compound 0.3 µM, first compound 0.316 µM) of the same compound?
A: 14.2%

Q: And the viability, T/C (second compound 0.3 µM, first compound 1 µM)?
A: 17.2%

Q: What about the viability, T/C (second compound 0.3 µM, first compound 3.16 µM) of the same compound?
A: 19.5%

Q: What about the viability, T/C (second compound 0.3 µM, first compound 10 µM) of the same compound?
A: 19.1%

Q: How did the IC50 (second compound 0.000949 µM) turn out when CC1(C)CCC(Nc2ncc(C(F)(F)F)c(-c3c[nH]c4c(P(C)(C)=O)c(C#N)ccc34)n2)CN1 (centres undefined) + CCn1c(-c2cccnc2C(C)OC)c2c3cc(ccc31)N1CCOC(CC(NC(=O)C(C(C)C)N(C)C(=O)C3(F)CCN(C(=O)C#CC(C)(C)N(C)C)CC3)C(=O)N3CCCC(N3)C(=O)OCC(C)(C)C2)C1 was run?
A: < 0.949 nM

Q: What about the IC50 (second compound 0.003 µM) of the same compound?
A: < 0.949 nM

Q: What about the IC50 (second compound 0.00949 µM) of the same compound?
A: < 0.949 nM

Q: What about the IC50 (second compound 0.03 µM) of the same compound?
A: < 0.949 nM

Q: What about the IC50 (second compound 0.0949 µM) of the same compound?
A: < 0.949 nM

Q: What about the IC50 (second compound 0.3 µM) of the same compound?
A: < 0.949 nM

Q: And the viability, T/C (second compound 0.000949 µM, first compound 0.000949 µM)?
A: 12.7%

Q: What about the viability, T/C (second compound 0.000949 µM, first compound 0.003 µM) of the same compound?
A: 12.4%

Q: And the viability, T/C (second compound 0.000949 µM, first compound 0.00949 µM)?
A: 13.2%

Q: And the viability, T/C (second compound 0.000949 µM, first compound 0.03 µM)?
A: 13.5%

Q: And the viability, T/C (second compound 0.000949 µM, first compound 0.0949 µM)?
A: 14.6%

Q: What about the viability, T/C (second compound 0.000949 µM, first compound 0.3 µM) of the same compound?
A: 14.8%

Q: And the viability, T/C (second compound 0.003 µM, first compound 0.000949 µM)?
A: 12.1%

Q: What about the viability, T/C (second compound 0.003 µM, first compound 0.003 µM) of the same compound?
A: 13.2%

Q: What about the viability, T/C (second compound 0.003 µM, first compound 0.00949 µM) of the same compound?
A: 12.7%

Q: What about the viability, T/C (second compound 0.003 µM, first compound 0.03 µM) of the same compound?
A: 12.8%

Q: And the viability, T/C (second compound 0.003 µM, first compound 0.0949 µM)?
A: 15.4%

Q: And the viability, T/C (second compound 0.003 µM, first compound 0.3 µM)?
A: 14.4%

Q: What about the viability, T/C (second compound 0.00949 µM, first compound 0.000949 µM) of the same compound?
A: 10.9%

Q: And the viability, T/C (second compound 0.00949 µM, first compound 0.003 µM)?
A: 11.9%

Q: What about the viability, T/C (second compound 0.00949 µM, first compound 0.00949 µM) of the same compound?
A: 12.1%

Q: And the viability, T/C (second compound 0.00949 µM, first compound 0.03 µM)?
A: 13.2%

Q: And the viability, T/C (second compound 0.00949 µM, first compound 0.0949 µM)?
A: 14%

Q: And the viability, T/C (second compound 0.00949 µM, first compound 0.3 µM)?
A: 15.2%

Q: What about the viability, T/C (second compound 0.03 µM, first compound 0.000949 µM) of the same compound?
A: 10.8%

Q: What about the viability, T/C (second compound 0.03 µM, first compound 0.003 µM) of the same compound?
A: 12.1%

Q: And the viability, T/C (second compound 0.03 µM, first compound 0.00949 µM)?
A: 12.3%

Q: What about the viability, T/C (second compound 0.03 µM, first compound 0.03 µM) of the same compound?
A: 12.8%

Q: And the viability, T/C (second compound 0.03 µM, first compound 0.0949 µM)?
A: 13.3%

Q: And the viability, T/C (second compound 0.03 µM, first compound 0.3 µM)?
A: 13.2%

Q: And the viability, T/C (second compound 0.0949 µM, first compound 0.000949 µM)?
A: 10.3%

Q: And the viability, T/C (second compound 0.0949 µM, first compound 0.003 µM)?
A: 9.49%

Q: And the viability, T/C (second compound 0.0949 µM, first compound 0.00949 µM)?
A: 11.1%

Q: And the viability, T/C (second compound 0.0949 µM, first compound 0.03 µM)?
A: 10.3%

Q: What about the viability, T/C (second compound 0.0949 µM, first compound 0.0949 µM) of the same compound?
A: 11.1%

Q: And the viability, T/C (second compound 0.0949 µM, first compound 0.3 µM)?
A: 10.7%

Q: What about the viability, T/C (second compound 0.3 µM, first compound 0.000949 µM) of the same compound?
A: 7.95%

Q: And the viability, T/C (second compound 0.3 µM, first compound 0.003 µM)?
A: 7.87%

Q: What about the viability, T/C (second compound 0.3 µM, first compound 0.00949 µM) of the same compound?
A: 7.86%

Q: What about the viability, T/C (second compound 0.3 µM, first compound 0.03 µM) of the same compound?
A: 8.99%

Q: And the viability, T/C (second compound 0.3 µM, first compound 0.0949 µM)?
A: 9.92%

Q: And the viability, T/C (second compound 0.3 µM, first compound 0.3 µM)?
A: 10.7%
